Source: US8293705B2, “HCV protease inhibitors and uses thereof” (Avila Therapeutics, Inc., priority 2007, dated 2012)
Read-outs that look alike come from different tables or passages of the source.

Experiments:
[1] = biological target: T1, HCV NS3/4A 1b protease R155K (Hepatitis C virus genotype 1b, UniProt Q9WMX2, R1181K); test: HCV protease FRET assay (IC50_APP), Example 16; type: biochemical; conditions: reaction started immediately after enzyme addition, read-out: Inhibition (apparent IC50, IC50_APP), HCV R155K
T1 construct: 10× stocks of NS3/4A protease enzyme from Bioenza (Mountain View, Calif.); purchased Bioenza (Mountain View, Calif.)
Description: (§1) The following protocol was used to generate “apparent” IC50 (IC50 APP) values as depicted in Table 6, below. […] 5 μL of each enzyme were added to Corning (#3575) 384-well, black, microtiter plates (Corning, N.Y.) after spotting a 0.5 μL volume of 50% DMSO and serially diluted compounds prepared in 50% DMSO. Protease reactions were immediately started after enzyme addition with the addition of 45 μL of the FRET substrate and monitored for 60-90 minutes at λex485/λem520 in a Synergy^4 plate reader from BioTek (Winooski, Vt.). At the conclusion of each assay, progress curves from each well were examined for linear reaction kinetics and fit statistics (R^2, 95% confidence intervals, absolute sum of squares).
(§2) The compound numbers correspond to the compound numbers in Table 3. […] ;

[2] = biological target: T2, HCV NS3/4A 1b protease wild type (Hepatitis C virus genotype 1b, UniProt Q9WMX2); test: HCV protease FRET assay (IC50_APP), Example 16; type: biochemical
T2 construct: 10× stocks of NS3/4A protease enzyme from Bioenza (Mountain View, Calif.); purchased Bioenza (Mountain View, Calif.)
Description: as §1, §2

[3] = biological target: T3, HCV NS3/4A 1b protease D168A (Hepatitis C virus genotype 1b, UniProt Q9WMX2, D1194A); test: HCV protease FRET assay (IC50_APP), Example 16; type: biochemical
T3 construct: 10× stocks of NS3/4A protease enzyme from Bioenza (Mountain View, Calif.); purchased Bioenza (Mountain View, Calif.)
Description: as §1, §2

[4] = system: HCV RNA replicon in cell line ET (luc-ubi-neo/ET), human Huh7 hepatoma; test: Replicon luciferase assay, Example 26; type: cell-based; conditions: Hepatitis C virus, Huh-7, assay of Example 26, 72 hr; for EC50: read-out: Inhibition, Replicon, EC50 value; for EC90: read-out: Inhibition, Replicon, EC90 value
Description: The compounds were assayed to evaluate the antiviral activity and cytotoxicity of compounds using replicon-derived luciferase activity. This assay used the cell line ET (luc-ubi-neo/ET), which is a human Huh7 hepatoma cell line that contains an HCV RNA replicon with a stable luciferase (Luc) reporter and cell culture-adaptive mutations. The ET cell line was grown in a 5% CO2 incubator at 37° C. in Dulbecco's modified essential media (DMEM) supplemented with 2 mM L-glutamine, nonessential amino acids, 100 U of penicillin/ml, 100 μg of streptomycin/mL, and 10% fetal bovine serum. G418 (Geneticin; Invitrogen) was added at a final concentration of 400 ug//mL.
All cell culture reagents were obtained from Invitrogen (Carlsbad). Cells were trypsinized (1% trypsin:EDTA) and plated out at 5×10^3 cells/well in white 96-well assay plates (Costar) dedicated to cell number (cytotoxicity) or antiviral activity assessments. Test compounds were added at six 3-fold concentrations each and the assay was run in DMEM, 5% FBS, 1% pen-strep, 1% glutamine, 1% non essential amino acid. Human interferon alpha-2b (PBL Biolabs, New Brunswick, N.J.) was included in each run as a positive control compound. Cells were processed 72 hr post test compound addition when the cells were still subconfluent. Antiviral activity was measured by analyzing replicon-derived luciferase activity using the Steady-Glo Luciferase Assay System (Promega, Madison, Wis.) according to manufacturer's instruction. The number of cells in each well was determined by Cell Titer Blue Assay (Promega). Compound profile was derived by calculating applicable EC50 (effective concentration inhibiting virus replication by 50%), EC90 (effective concentration inhibiting virus replication by 90%), IC50 (concentration decreasing cell viability by 50%) and SI50 (selective index: […]) values.

CC(C)(C)OC(=O)N[C@H]1CN(C(=O)CCl)CCC/C=C\[C@@H]2C[C@@]2(C(=O)N(C(=O)CCl)S(=O)(=O)C2CC2)NC(=O)[C@@H]2CC(OC(=O)N3Cc4cccc(F)c4C3)CN2C1=O (some centres unmarked) [Compound I-48]
IC50 [1]: 100 to 1000 nM | IC50 [2]: 10 to 100 nM | IC50 [3]: 100 to 1000 nM

C=C[C@@H]1C[C@]1(NC(=O)[C@@H]1CC(OC(=O)N2Cc3cccc(F)c3C2)CN1C(=O)[C@@H](C)Nc1ccnc(Cl)n1)C(=O)NS(=O)(=O)C1CC1 (some centres unmarked) [Compound I-49]
IC50 [1]: 1000 to 10000 nM | IC50 [2]: 100 to 1000 nM | IC50 [3]: 1000 to 10000 nM | EC50 [4]: 1000 to 10000 nM | EC90 [4]: 1000 to 10000 nM

C=C[C@@H]1C[C@]1(NC(=O)[C@@H]1CC(OC(=O)N2Cc3cccc(F)c3C2)CN1C(=O)C(CN(C)C(=O)/C=C/CN(C)C)NC(=O)OC(C)(C)C)C(=O)NS(=O)(=O)C1CC1 (some centres unmarked) [Compound I-50]
IC50 [1]: 1000 to 10000 nM | IC50 [2]: 10 to 100 nM | IC50 [3]: 1000 to 10000 nM | EC50 [4]: 1000 to 10000 nM | EC90 [4]: 1000 to 10000 nM

C=CC(=O)N1CC(C(NC(=O)OC2CCCC2)C(=O)N2CC(OC(=O)N3Cc4cccc(F)c4C3)C[C@H]2C(=O)N[C@]2(C(=O)NS(=O)(=O)C3CC3)C[C@H]2C=C)C1 (some centres unmarked) [Compound I-51]
IC50 [1]: 10 to 100 nM | IC50 [2]: < 10 nM | IC50 [3]: 10 to 100 nM | EC50 [4]: 100 to 1000 nM | EC90 [4]: 1000 to 10000 nM

C=CC(=O)N(C)CC(NC(=O)C12CCC(C(=O)OC)(CC1)CC2)C(=O)N1CC(OC(=O)N2Cc3cccc(F)c3C2)C[C@H]1C(=O)N[C@]1(C(=O)NS(=O)(=O)C2CC2)C[C@H]1C=C (some centres unmarked) [Compound I-52]
IC50 [2]: 10 to 100 nM | IC50 [3]: 1000 to 10000 nM | EC50 [4]: 1000 to 10000 nM | EC90 [4]: 1000 to 10000 nM

CC(C)(C)OC(=O)N[C@H]1CCN(S(=O)(=O)c2ccccc2[N+](=O)[O-])CC/C=C\[C@@H]2C[C@@]2(C(=O)NS(=O)(=O)C2CC2)NC(=O)[C@@H]2CC(OC(=O)N3Cc4cccc(F)c4C3)CN2C1=O (some centres unmarked) [Compound I-53]
IC50 [1]: < 10 nM | IC50 ([2]; read-out: Inhibition (apparent IC50, IC50_APP), WT, FRET, reaction started immediately after enzyme addition): < 10 nM | IC50 ([3]; read-out: Inhibition (apparent IC50, IC50_APP), HCV D168A, FRET, reaction started immediately after enzyme addition): < 10 nM | EC50 [4]: 10 to 100 nM | EC90 [4]: 100 to 1000 nM

CC[C@@H]1C[C@]1(NC(=O)[C@@H]1C[C@@H](OC(=O)N2Cc3cccc(F)c3C2)CN1C(=O)[C@H](CC(=O)C=C(C)C)NC(=O)OC(C)(C)C)C(=O)NS(=O)(=O)C1CC1 [Compound I-60]
IC50 [1]: 100 to 1000 nM | IC50 [2]: < 10 nM

CC(C)(C)OC(=O)N[C@H]1COC(=O)/C=C/C=C\[C@@H]2C[C@@]2(C(=O)NS(=O)(=O)C2CC2)NC(=O)[C@@H]2C[C@@H](OC(=O)N3Cc4cccc(F)c4C3)CN2C1=O [Compound I-65]
IC50 [1]: 10 to 100 nM | IC50 [2]: < 10 nM | IC50 [3]: 100 to 1000 nM

C/C=C/C(=O)OC1CC/C=C\[C@@H]2C[C@@]2(C(=O)NS(=O)(=O)C2CC2)NC(=O)[C@@H]2C[C@@H](OC(=O)N3Cc4cccc(F)c4C3)CN2C(=O)[C@@H](NC(=O)OC(C)(C)C)CC1 (some centres unmarked) [Compound I-66]
IC50 [1]: < 10 nM | IC50 [2]: < 10 nM | IC50 [3]: < 10 nM

C=C[C@@H]1C[C@]1(NC(=O)[C@@H]1C[C@@H](OC(=O)N2Cc3cccc(F)c3C2)CN1C(=O)[C@H](COC(=O)/C=C/C=C/C)NC(=O)OC(C)(C)C)C(=O)NS(=O)(=O)C1CC1 [Compound I-67]
IC50 [1]: 100 to 1000 nM | IC50 [2]: < 10 nM | IC50 [3]: 100 to 1000 nM

C=C[C@@H]1C[C@]1(NC(=O)[C@@H]1CC(OC(=O)N2Cc3cccc(F)c3C2)CN1C(=O)[C@H](CC(=O)/C(C)=C/C)NC(=O)OC(C)(C)C)C(=O)NS(=O)(=O)C1CC1 (some centres unmarked) [Compound I-70]
IC50 [1]: 100 to 1000 nM | IC50 [2]: < 10 nM | IC50 [3]: 100 to 1000 nM

C=C[C@@H]1C[C@]1(NC(=O)[C@@H]1CC(OC(=O)N2Cc3cccc(F)c3C2)CN1C(=O)[C@H](CC/C=C/C(=O)OC)NC(=O)OC(C)(C)C)C(=O)NS(=O)(=O)C1CC1 (some centres unmarked) [Compound I-72]
IC50 [1]: 10 to 100 nM | IC50 [2]: < 10 nM | IC50 [3]: 100 to 1000 nM
